This note sets out measurements from ChEMBL document CHEMBL5579837, “Dual 5-HT6/SERT ligands for mitigating neuropsychiatric symptoms of dementia exerting neuroprotection against amyloid-β toxicity, memory preservation, and antidepressant-like properties” (Eur J Med Chem, 2024).

The target of data set [1] is Voltage-gated inwardly rectifying potassium channel KCNH2 (Homo sapiens, UniProt Q12809). Briefly: Inhibition of hERG expressed in CHO cells measured for 30 mins by electrophysiological automated patch clamp assay. The format is toxicity, cell-based. A general note: The hERG channel carries a current that helps repolarise heart muscle cells.
In data set [2] the target is 5-hydroxytryptamine receptor 6 (Homo sapiens, UniProt P50406).
Description: Displacement of [3H]-LSD from human 5-HT6 receptor extracted from CHO-K1 cell membrane assessed as inhibition constant incubated for 60 mins by microbeta2 scintillation counter analysis
The nature of another data set: physchem. Particulars: PBS, pH 7.4.
Data set [3] is described as follows: in vitro. Particulars: mouse, HT-22 cells.
Description: Neurotoxicity in mouse HT-22 cells incubated for 24 hrs by PrestoBlue reagent based assay
Data set [4] can be described thus: in vitro. Particulars: PAMPA. (In general: In PAMPA a lipid-coated filter parts donor from acceptor wells.)
Description: Permeability of compound by PAMPA based LC-MS analysis
Data set [5] is described as follows: in vitro. Particulars: rat, liver microsomes. (In general: Microsomes from liver hold many membrane-bound enzymes, among them those of drug oxidation.)
Data set [6] in a line: in vitro. Particulars: human, HepG2 cells.
Description: Hepatotoxicity in human HepG2 cells incubated for 24 hrs by PrestoBlue reagent based assay
A short description of data set [7]: in vitro. Particulars: rat, liver microsomes. The source holds these as a separate data set.

Structures are written as SMILES. Converted amounts (≈) assume the structure as drawn.

Chain of Voltage-gated inwardly rectifying potassium channel KCNH2 (Q12809 whole entry): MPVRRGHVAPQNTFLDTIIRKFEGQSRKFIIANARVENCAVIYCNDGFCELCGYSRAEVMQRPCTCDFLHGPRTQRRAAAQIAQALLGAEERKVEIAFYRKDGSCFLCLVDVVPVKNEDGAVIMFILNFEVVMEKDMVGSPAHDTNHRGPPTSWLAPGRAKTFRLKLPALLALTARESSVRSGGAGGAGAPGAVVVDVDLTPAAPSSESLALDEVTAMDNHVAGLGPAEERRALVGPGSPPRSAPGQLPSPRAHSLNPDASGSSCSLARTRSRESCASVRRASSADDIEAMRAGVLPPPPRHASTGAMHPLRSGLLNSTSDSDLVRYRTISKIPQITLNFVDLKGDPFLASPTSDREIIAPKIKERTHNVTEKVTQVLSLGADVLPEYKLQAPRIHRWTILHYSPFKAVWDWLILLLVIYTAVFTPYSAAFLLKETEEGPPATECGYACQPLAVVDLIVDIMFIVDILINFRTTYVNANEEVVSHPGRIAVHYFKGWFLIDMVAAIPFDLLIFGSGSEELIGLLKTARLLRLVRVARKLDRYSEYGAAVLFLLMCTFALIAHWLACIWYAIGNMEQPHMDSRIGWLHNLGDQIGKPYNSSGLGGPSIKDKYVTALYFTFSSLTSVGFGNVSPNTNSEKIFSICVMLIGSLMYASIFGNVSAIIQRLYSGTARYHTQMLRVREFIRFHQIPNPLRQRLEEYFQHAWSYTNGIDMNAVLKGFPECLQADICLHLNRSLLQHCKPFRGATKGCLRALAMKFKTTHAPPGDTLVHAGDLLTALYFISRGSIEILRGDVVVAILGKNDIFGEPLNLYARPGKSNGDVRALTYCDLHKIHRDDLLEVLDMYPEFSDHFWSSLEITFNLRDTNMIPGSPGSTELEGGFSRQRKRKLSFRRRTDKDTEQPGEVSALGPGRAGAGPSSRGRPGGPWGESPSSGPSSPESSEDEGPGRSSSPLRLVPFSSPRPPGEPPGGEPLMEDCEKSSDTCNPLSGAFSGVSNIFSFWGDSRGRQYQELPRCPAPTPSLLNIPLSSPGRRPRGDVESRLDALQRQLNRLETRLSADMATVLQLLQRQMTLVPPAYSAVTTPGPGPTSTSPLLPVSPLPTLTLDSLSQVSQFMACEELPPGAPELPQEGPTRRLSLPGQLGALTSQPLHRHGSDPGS
Chain of 5-hydroxytryptamine receptor 6 (P50406 whole entry): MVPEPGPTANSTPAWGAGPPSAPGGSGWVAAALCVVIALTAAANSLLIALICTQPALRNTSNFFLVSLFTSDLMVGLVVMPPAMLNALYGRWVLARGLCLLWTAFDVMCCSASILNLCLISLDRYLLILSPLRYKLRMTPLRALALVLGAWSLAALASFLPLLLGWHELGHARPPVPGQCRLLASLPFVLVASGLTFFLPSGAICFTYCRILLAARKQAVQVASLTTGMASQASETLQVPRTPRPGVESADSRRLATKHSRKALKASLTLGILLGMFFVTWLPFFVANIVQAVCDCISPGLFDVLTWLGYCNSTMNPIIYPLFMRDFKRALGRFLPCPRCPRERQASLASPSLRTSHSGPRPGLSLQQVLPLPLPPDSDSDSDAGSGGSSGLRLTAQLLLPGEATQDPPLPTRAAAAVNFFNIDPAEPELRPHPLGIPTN

As to `N#Cc1ccc2[nH]cc(CCN3CCN(c4cccc5c4[nH]c(=O)n5Cc4ccccc4)CC3)c2c1`, in data set [1], half-maximal inhibition (IC50) required 1700 nM.

In data set [1], `N#Cc1ccc2[nH]cc(CCCCN3CCN(c4cccc5c4ccn5S(=O)(=O)c4ccccc4)CC3)c2c1` showed a 50% inhibitory concentration (IC50) of 1600 nM.

With `N#Cc1ccc2[nH]cc(CCCCN3CCN(c4cccc5c4[nH]c(=O)n5Cc4ccccc4)CC3)c2c1`, the IC50 in data set [1] was 1100 nM.

As to `O=S(=O)(c1ccccc1)c1c[nH]c2c(C3CCN(CCCc4c[nH]c5ccc(Cl)cc45)CC3)cccc12`, inhibition in data set [1] was half-maximal at 9500 nM (IC50).

Compound `Cc1c(OCc2ccccc2)cccc1N1CCN(CCCc2c[nH]c3ccc(C#N)cc23)CC1` yielded an IC50 in data set [1] of 1100 nM.

`O=S(=O)(c1ccccc1)c1c[nH]c2c(C3CCN(CCc4c[nH]c5ccc(Cl)cc45)CC3)cccc12`: in data set [1], the IC50 is 7000 nM.

`O=c1[nH]c2c(N3CCN(CCc4c[nH]c5ccc(F)cc45)CC3)cccc2n1Cc1ccccc1`: in data set [1], the 50% inhibitory concentration (IC50) was found to be 3900 nM. For the same compound, in data set [2], the Ki stood at 116 nM.

The compound `O=c1[nH]c2c(N3CCN(CCCc4c[nH]c5ccc(Cl)cc45)CC3)cccc2n1Cc1ccccc1` returned an IC50 in data set [1] of 2500 nM. In other words, the single-digit micromolar range.

The compound `N#Cc1ccc2[nH]cc(CCN3CCN(c4cccc5c4ccn5S(=O)(=O)c4ccccc4)CC3)c2c1` returned an IC50 in data set [1] of 8900 nM.

On to `Cc1c(OCc2ccccc2)cccc1N1CCN(CCc2c[nH]c3ccc(Cl)cc23)CC1`, for which the IC50 in data set [1] is 6600 nM. In data set [2], this compound showed a Ki of 142 nM.

Compound `Cc1c(OCc2ccccc2)cccc1N1CCN(CCCCc2c[nH]c3ccc(C#N)cc23)CC1` returned an IC50 in data set [1] of 4900 nM. That is a single-digit micromolar value.

In turn, `N#Cc1ccc2[nH]cc(CCCN3CCN(c4cccc5c4ccn5S(=O)(=O)c4ccccc4)CC3)c2c1` returned an IC50 in data set [1] of 1700 nM.

`N#Cc1ccc2[nH]cc(CCCN3CCN(c4cccc5c4[nH]c(=O)n5Cc4ccccc4)CC3)c2c1` gave an IC50 in data set [1] of 1200 nM.

For `O=c1[nH]c2c(N3CCN(CCc4c[nH]c5ccc(Cl)cc45)CC3)cccc2n1Cc1ccccc1`, the concentration in solution in the data set “physchem” (solubility at 24 h) was 23.4 µM (≈ 11.4 µg/mL). In addition, the IC50 at 24 h in “in vitro [3]” was 47000 nM; in “in vitro [6]”, 23000 nM. The compound also returned a Papp in “in vitro [4]” of 2.75 ×10⁻⁶ cm/s. Besides, the IC50 in data set [1] stood at 4000 nM. In “in vitro [5]”, the half-life is > 1 h. The microsomal CLint in the data set “in vitro [7]” is < 116 µL/min/mg. In data set [2], this compound showed an inhibition constant Ki of 8 nM.

The compound `Cc1c(OCc2ccccc2)cccc1N1CCN(CCc2c[nH]c3ccc(F)cc23)CC1` yielded an IC50 in data set [1] of 2800 nM.

`Cc1c(OCc2ccccc2)cccc1N1CCN(CCCc2c[nH]c3ccc(Cl)cc23)CC1` returned a 50% inhibitory concentration (IC50) in data set [1] of 13600 nM.

Regarding `N#Cc1ccc2[nH]cc(CCCN3CCC(c4cccc5c(S(=O)(=O)c6ccccc6)c[nH]c45)CC3)c2c1`, inhibition in data set [1] was half-maximal at 28100 nM (IC50).

In the case of `N#Cc1ccc2[nH]cc(CCN3CCC(c4cccc5c(S(=O)(=O)c6ccccc6)c[nH]c45)CC3)c2c1`, the IC50 in data set [1] was determined as 1100 nM. Against the preceding compound, the IC50 is about 26-fold lower.

In data set [1], `Cc1c(OCc2ccccc2)cccc1N1CCN(CCCc2c[nH]c3ccc(F)cc23)CC1` gave a concentration for half-maximal inhibition (IC50) of 3300 nM.

For the compound `O=S(=O)(c1ccccc1)n1ccc2c(N3CCN(CCc4c[nH]c5ccc(Cl)cc45)CC3)cccc21`, the midpoint of inhibition in data set [1], the IC50, lay at 21300 nM. In data set [2], this compound returned a Ki of 19 nM.

`O=S(=O)(c1ccccc1)c1c[nH]c2c(C3CCN(CCCc4c[nH]c5ccc(F)cc45)CC3)cccc12`: in data set [1], 5000 nM corresponded to half-maximal inhibition (IC50).

In data set [1], `Cc1c(OCc2ccccc2)cccc1N1CCN(CCc2c[nH]c3ccc(C#N)cc23)CC1` had an IC50 of 3600 nM.

`O=S(=O)(c1ccccc1)n1ccc2c(N3CCN(CCCc4c[nH]c5ccc(F)cc45)CC3)cccc21` registered an IC50 in data set [1] of 2900 nM.

`O=c1[nH]c2c(N3CCN(CCCc4c[nH]c5ccc(F)cc45)CC3)cccc2n1Cc1ccccc1`: 2500 nM corresponded to half-maximal inhibition in data set [1] (IC50). This IC50 and that of the compound before are within 1.5-fold of each other.

Consider `N#Cc1ccc2[nH]cc(CCCCN3CCC(c4cccc5c(S(=O)(=O)c6ccccc6)c[nH]c45)CC3)c2c1`, for which the midpoint of inhibition in data set [1], the IC50, lay at 4600 nM.

As to `O=S(=O)(c1ccccc1)n1ccc2c(N3CCN(CCCc4c[nH]c5ccc(Cl)cc45)CC3)cccc21`, the IC50 in data set [1] came to 700 nM. Compared with the last compound, the IC50 is about 6.6-fold lower.

`O=S(=O)(c1ccccc1)c1c[nH]c2c(C3CCN(CCc4c[nH]c5ccc(F)cc45)CC3)cccc12` had an IC50 in data set [1] of 29300 nM. This compound displayed a Ki in data set [2] of 25 nM.

Regarding `O=S(=O)(c1ccccc1)n1ccc2c(N3CCN(CCc4c[nH]c5ccc(F)cc45)CC3)cccc21`, the IC50 in data set [1] was 1300 nM.

For orientation: IC50 means the midpoint of a concentration-inhibition curve. A lower IC50 goes with greater potency in that assay. Usually Ki stands for a measure of affinity in units of concentration, obtained from inhibition or displacement. A higher Ki goes with a looser hold on the target. In general, solubility refers to how much of the substance goes into solution per volume. As a reminder, the Papp is a coefficient for how fast a substance crosses the barrier. A high value points to fast passage. What is called half-life is how long it takes for the measured level to halve. Higher therefore signals slow decline. For orientation: microsomal CLint means the rate of metabolic loss divided by the concentration. Read a high microsomal CLint as rapid turnover.
